Assay [1] deals with PARP. The assay can be described thus: SILAC quantitative mass spectrometric analysis of the Asp/Glu-ADP-ribosylated proteome in HCT116 shPARG cells. The note with it: for change in protein Asp/Glu-ADP-ribosylation compared with that of Olaparib: 1 μM. The assay is classed as cell-based, human. On the procedure: SILAC cell culture: Cells (HCT116 shPARG) were grown in the SILAC media as described previously^23. Both light and heavy DMEM were supplemented with 10% dialyzed FBS (Invitrogen). Where indicated, cells were pretreated with 1 μM Olaparib for 40 min and were stimulated with 2 mM H2O2 for 5 min We performed two experiments using this experimental design with single labeling with Lys (sample digested with Lys-C) or double labeling with Lys and Arg (sample digested with trypsin). Each experiment was composed of two technical replicate analyses. The same experiment (Lys labeling only) was repeated for four other PARP inhibitors, including A966492 (1 μM), AG14361 (1 μM), Iniparib (50 μM) and 3-AB (50 μM).
Sample preparation for mass spectrometric analysis: Cells were lysed in SDS lysis buffer (1% SDS, 10 mM HEPES pH 7.0, 2 mM MgCl2, 500 U Benzonase). Lysates were washed with SDS lysis buffer for three times using centricon ultrafiltration units (MWCO=10,000 Da, Millipore). Lysates were reduced by adding DTT to a final concentration of 3 mM, followed by incubation at room temperature for 20 min Cysteines were alkylated by adding iodoacetamide to a final concentration of 50 mM, followed by incubation in the dark for 20 min Lysates were digested with LysC (Wako) or trypsin (Promega) at a 1:100 (enzyme:substrate) ratio for 2 hrs at RT. pH of the lysates were adjusted to 8.5 and the lysates were incubated with m-aminophenylborinic acid agarose for 1 hr at RT. Beads were washed with the SDS wash buffer (1% SDS, 100 mM HEPES pH 8.5, 150 mM NaCl) for three times, and then the wash buffer (100 mM HEPES pH 8.5, 150 mM NaCl) for five times. Beads were incubated with 0.5 M NH2OH overnight. Released peptides were desalted on SepPak C18 columns (Waters) according to manufacturer's instructions.
Mass spectrometry analysis and data processing: Samples were analyzed by LC-MS/MS on an LTQ-Velos Pro Orbitrap mass spectrometer (Thermo Fischer Scientific, San Jose, Calif.) using a top twenty method^23. MS/MS spectra were searched against a composite database of the human IPI protein database and its reversed complement using the Sequest algorithm. Search parameters allowed for a static modification of 57.02146 Da for Cys and a dynamic modification of addition of 15.0109 Da to Asp and Glu, and, when applicable, the stable isotope (10.00827 Da) and (8.01420 Da) on Arg and Lys, respectively. […] Localization of ADP-ribosylation sites was assessed by the ModScore algorithm based on the observation of site-specific fragment ions^25. Sites with scores≧13 (p≦0.05) were considered localized. Peptide quantification was performed as previously described^23 and ADP-ribosylation motifs were extracted using the Motif-X algorithm using a significance threshold of P<0.001^26.

Assay [2] deals with PARP. The assay can be described thus: Immunoblotting of protein PARylation in cells after MNNG or H2O2 treatment. The assay is classed as cell-based, human. The note with it: for H2O2-induced PARP activation (immunoblotting): 1 μM treatment. An excerpt:
We sought to develop an approach towards a global characterization of Asp/Glu-ADP-ribosylation. […] The major cellular enzymatic activity for degrading PAR is from poly-ADP-ribose glycohydrolase (PARG)^2.
Cells and Reagents: HCT116 and HEK293T cells were purchased from ATCC and were maintained in Dulbecco's modified Eagle's medium (DMEM) supplemented with 10% fetal bovine serum. PARP inhibitors were purchased from Selleck. […] Other chemicals and reagents were obtained from Sigma unless indicated otherwise.
Immunoblotting analysis: Samples were subjected to electrophoresis using the standard SDS-PAGE method. Proteins were transferred to a nitrocellulose membrane (Whatman). Membranes were blocked with a TBST buffer (25 mM Tris-HCl, pH 7.5, 150 mM NaCl, 0.05% Tween 20) containing 3% nonfat dried milk, and probed overnight with primary antibodies at 4° C. and for 1 h at RT with peroxidase-conjugated secondary antibodies. Blots were developed using enhanced chemiluminescence, exposed on autoradiograph film and developed using standard methods.
In general terms: In western blotting, separated proteins are transferred to a membrane and probed.

For another assay, the system named is tankyrase. The settings on record: cited from earlier work.
[3] abbreviates: 1 μM Olaparib, 2 mM H2O2, HCT116 shPARG.

“Also recorded” adds a separate entry of the source.

`NC(=O)c1ccc(I)c([N+](=O)[O-])c1` [Iniparib]: in the assay with PARP [1] (Iniparib 50 μM), the “change in ADP-ribosylation level of most of the identified peptides” value is on record as “less than two fold”, the “decrease of a peptide from the RNA helicase DDX21” value is on record as “about 4 fold” and the “effect on PARP activity in intact cells” value is “negligible effect; also recorded: failed to inhibit PARP”. Also, in the assay with PARP [1] (Iniparib 50 μM, 3-AB 50 μM), the “potency relative to 3-AB” value is given as “lower than the prototype PARP inhibitor 3-AB”. In addition, the “H2O2-induced hyper-PARylation / PARP activity (immunoblotting)” value in the assay with PARP [2] (50 μM) is “little effect”.

With `CN(C)Cc1ccc(-c2nc3cccc4c3n2CCNC4=O)cc1` [AG14361], the “change in protein Asp/Glu-ADP-ribosylation compared with that of Olaparib” value in the assay on PARP [1] is recorded as “correlated well”. The “H2O2-induced PARP activation (immunoblotting)” value in the assay on PARP [2] was “potently inhibited”.

In the case of `O=C(c1cc(Cc2n[nH]c(=O)c3ccccc23)ccc1F)N1CCN(C(=O)C2CC2)CC1` [Olaparib], the “decrease of a peptide from the RNA helicase DDX21” value with PARP [1] (1 μM Olaparib) is “more than 11 fold”. The “modified peptides whose intensity decreased by more than two-fold” value in the assay on PARP [1] (1 μM Olaparib 40 min pretreatment, 2 mM H2O2 5 min, HCT116 shPARG) was “more than 81%”. In the assay on PARP [1] (setting [3]), the “ADP-ribosylation of two evolutionarily conserved Glu residues on PCNA” value is listed as “dramatically decreased”; the “ADP-ribosylation of two tankyrase substrates, CASC3 and BLZF1” value is on record as “little change”; the “decrease in level of PARP1 automodified peptide comprising E483” value was “approximately 120 fold”. In addition, the “sensitivity of the majority of PARylation events to treatment” value in the assay with PARP [1] (quantitative mass spectrometric analysis) was “sensitive”. Moreover, the inhibition of tankyrase result in the assay with tankyrase was “does not inhibit”. The “increased PARylation after MNNG or H2O2 treatment” value in the assay with PARP [2] (PARG-depleted cells, pretreatment with the inhibitor) is recorded as “blocked”.

Turning to `NC(=O)c1cccc2[nH]c(-c3ccc([C@@H]4CCCN4)cc3F)nc12` [A96692], the “change in protein Asp/Glu-ADP-ribosylation compared with that of Olaparib” value in the assay with PARP [1] was “correlated well”. The “H2O2-induced PARP activation (immunoblotting)” value in the assay on PARP [2] was “potently inhibited”.
